Experimental data from patent US12492192B2, “Crystalline form of lifitegrast, and pharmaceutical composition comprising the same” (YS LIFE SCIENCE CO. LTD., priority 2020, dated 2025).
Values after ≈ are worked out from the molar mass of the structure shown. “Also recorded” adds a separate entry of the source.

Tests used:
Type in all cases: physicochemical
[1] = Hygroscopicity test (DVS); conditions: for Moisture Absorption at 25° C./80% RH: DVS, isothermal 25° C.; for Hygroscopicity (DVS analysis, in words): 25° C., relative humidity 5-95%, EP standard 25° C., 80% RH
Procedure: Using a DVS (dynamic vapor absorption, VTI SGA-100, TA Instruments) which is a vapor adsorption and desorption device, crystalline forms Y and S of lifitegrast obtained from the Examples and crystalline form A of lifitegrast obtained from the Comparative Example were subjected to moisture adsorption and desorption once repeatedly, respectively, at an isothermal condition of 25° C. and in a relative humidity range of 5-95% with an interval of 5% RH.

[2] = Solubility test in water; conditions: for Solubility in water: stirred at room temperature; for Solubility compared with that of crystalline form A: room temperature, relative to crystalline form A
Procedure: After crystalline forms Y and S of lifitegrast obtained from the Examples and crystalline form A of lifitegrast obtained from the Comparative Example were dissolved in water, respectively, they were sufficiently stirred at room temperature to perform a solubility test.

[3] = Thermal stability test (XRPD and HPLC after storage); conditions: 40° C./75% RH, 4 weeks, brown vial in aluminum pouch
Procedure: 50 mg of crystalline form Y and 50 mg of crystalline form S obtained from the Examples were put into brown vials, respectively, and secondary packaging was carried out in an aluminum pouch, followed by storing at 40±2° C. and 75±5% RH. After 4 weeks, each sample was taken out, X-ray powder diffraction (XRPD) analysis was performed to evaluate the stability of the crystalline form, and high performance liquid chromatography (HPLC) analysis was performed to evaluate the generation and increase of related substances.
The results of the X-ray powder diffraction (XRPD) analysis and high performance liquid chromatography (HPLC) analysis are shown in Table 5 and 6, respectively.

Compound | Moisture Absorption at 25° C./80% RH [1] [%] | Solubility in water [2] [µg/mL] | Hygroscopicity (DVS analysis, in words) [1] | Solubility compared with that of crystalline form A [2] | Generation and increase of related substances (HPLC analysis) [3] | Stability of the crystalline form (XRPD analysis) [3]
CS(=O)(=O)c1cccc(C[C@H](NC(=O)c2c(Cl)cc3c(c2Cl)CCN(C(=O)c2ccc4ccoc4c2)C3)C(=O)O)c1 [Crystalline Form A, lifitegrast] | 1.0 | 32 (≈ 52 µM) |  |  |  | 
CS(=O)(=O)c1cccc(C[C@H](NC(=O)c2c(Cl)cc3c(c2Cl)CCN(C(=O)c2ccc4ccoc4c2)C3)C(=O)O)c1 [Crystalline Form Y, lifitegrast] | 2.9 | 67 (≈ 109 µM) | low hygroscopicity | twice or more | no related substance was observed; also recorded: No generation of Related | did not change in appearance and polymorphism; also recorded: Retention of Crystalline Form
CS(=O)(=O)c1cccc(C[C@H](NC(=O)c2c(Cl)cc3c(c2Cl)CCN(C(=O)c2ccc4ccoc4c2)C3)C(=O)O)c1 [Crystalline Form S, lifitegrast] | 0.1 | 64 (≈ 104 µM) | low hygroscopicity; also recorded: lower hygroscopicity than the crystalline form A | twice or more | no related substance was observed; also recorded: No generation of Related | did not change in appearance and polymorphism; also recorded: Retention of Crystalline Form
